Patent publication US20090291908A1, “Use of thiophoshonoformic acid and nrtis to treat viral infections” (priority 2005, published 2009)

Key:
[1] = tested on: Thiovir™ resistant HIVLAI, selection 2 (L214F, M184I); assay: IC50 by MAGI assay on selected resistant virus; type: cell-based, HIV-1; settings: for Susceptibility Index (IC50 Resistant Virus/IC50 Purent Virus): Drug Resistant Virus: Thiovir ™ (Selection # 2), MAGI assay
Description: (§1) Thiovir™ and foscarnet resistant viruses were selected by in vitro passage of HIVLAI on H9 cells in the presence of escalating concentrations of drug. Resistant virus was evaluated for phenotypic changes by IC50 determination using the MAGI assay. Furthermore, the viral DNA was sequenced to determine genotypic variations (Table 4). Two independent 13 to 15 round selections were performed.

[2] = tested on: Thiovir™ resistant HIVLAI, selection 1 (L214F, R172K, Q174R); assay: IC50 by MAGI assay on selected resistant virus; type: cell-based, HIV-1; settings: for Susceptibility Index (IC50 Resistant Virus/IC50 Purent Virus): Drug Resistant Virus: Thiovir ™ (Selection # 1), MAGI assay
Description: as §1

[3] = tested on: Foscarnet resistant HIVLAI, selection 1 (L214F, R172K); assay: IC50 by MAGI assay on selected resistant virus; type: cell-based, HIV-1; settings: Drug Resistant Virus: Foscarnet (Selection # 1)
Description: as §1

[4] = tested on: Foscarnet resistant HIVLAI, selection 2 (L214F, M184I); assay: IC50 by MAGI assay on selected resistant virus; type: cell-based, HIV-1; settings: Drug Resistant Virus: Foscarnet (Selection # 2)
Description: as §1

[5] = tested on: HIV in H9 T-cells; type: cell-based; settings: p24 assay; combined with tenofovir at a ratio of 1:1
Description: Reduction in viral titer also can be measured using an ELISA capture assay with antibodies specific for viral capsid proteins (e.g., HIV-1 p24).
H9 T-cells were pretreated with polybrene at 4 μg/ml and drug at indicated concentrations in RPMI plus 10% fetal calf serum for 30 minutes prior to adsorption of virus at multiplicities of infection (MOI) 0.1 for 2 hours at 37° C., 5% CO2. Cells were washed 3 times with PBS and resuspended in fresh media plus drug. Incubation at 37° C., 5% CO2 was continued for 4-6 days and cells centrifuged at 1200 rpm. Supernatants were removed and p24 detected by quantitative antigen capture kit (Zeptometrix, Buffalo, N.Y.).

[6] = tested on: panel of NRTI and NNRTI resistant HIV-1; assay: PhenoSense reporter assay, panel of ten resistant viruses; type: cell-based; settings: FIG. 2; for susceptibility of the resistant virus panel: all viruses of the panel
Text: Antiviral activity also can be quantitatively measured using a PhenoSense™ assay. A PhenoSense™ assay uses nucleic acid amplification to derive HIV protease and reverse transcriptase nucleic acid sequences from plasma. The patient-derived sequences are incorporated into a viral vector to construct a resistance test vector (RTV). The viral vector also contains an indicator or reporter gene (e.g., green fluorescent protein, luciferase, beta galactosidase, etc.) inserted within a deleted portion of the HIV envelope gene. The reporter gene is under the control of a strong promoter (e.g., a CMV promoter) in the RTV.
The PhenoSense™ assay is performed by introducing the RTV nucleic acid sequence into host cells, collecting virus particles after transfection, and using the virus particles to infect target cells. Drug susceptibility is measured by comparing reporter gene activity produced in the presence and absence of drugs. The presence of drug can be one or more different concentrations, for example, several titrated concentrations.
The data are analyzed by plotting the percent inhibition of viral replication, as measured by reporter gene activity, against the log10 concentration of drug for the patient virus (in the RTV) and a drug sensitive reference virus. The resulting drug susceptibility curve is used to calculate the concentration of drug required to inhibit viral replication by 50% (IC50). A shift in the patient inhibition curve toward a higher drug concentration as compared to the curve of the drug-sensitive reference virus is interpreted as reduced drug susceptibility. A shift in the patient inhibition curve toward a lower drug concentration as compared to the curve of the drug-sensitive reference virus is interpreted as increased drug susceptibility. PhenoSense™ can be conducted by a commercial service provider, for example, Monogram Biosciences, South San Francisco, Calif.
All Phenosense™ assays were performed at Virologic, Inc as described (Petropoulos, et al. (2000) Antimicrob Agents Chemother 44:920). Briefly, the envelope gene is deleted from wild type HIV-1 and luciferase reporter inserted under control of a strong CMV promoter. Viral stocks are produced by co-transfection of producer cells with the recombinant viral DNA and a vector that expresses envelope protein from an amphotropic murine leukemia virus. Pseudotyped viral particles are replication defective and only undergo one round of infection. Expression of the luciferase gene in target cells is dependent on a single round of infection.
The activity of Thiovir™ was evaluated against viruses that are resistant to common NRTI and NNRTI drugs using the Phenosense™ reporter system (Petropoulos, supra). […]

[7] = tested on: Thiovir™ and foscarnet selected virus; assay: Susceptibility of selected viruses; type: cell-based, HIV-1; settings: both Thiovir™ and foscarnet selected virus
Description: Wild type and antiviral drug resistant HIV were tested for sensitivity to anti-viral drugs using either MAGI assay or Phenosense™ assay. The 50% inhibitory concentration, IC50, was then determined from a plot of percent inhibition vs. log10 drug concentration.
MAGI cells were seeded at approximately 5×10^4 cells per well in a 12 well plate in DMEM with 10% fetal calf serum and incubated overnight at 37° C. in 5% CO2. Drug was added at various concentrations and incubated for approximately 30 to 60 minutes. Cells were infected with either HIV-1 HXB2 or HIV-1IIIB in the presence of either 4 microg/ml polybrene or 60 microg/ml dextran. Infection was continued for 48 hours and cells fixed using 0.05% glutaraldehyde. […] Blue nuclei were counted under a microscope at 100× magnification.
To select for drug resistant variants, 1×10^6H9 cells were pretreated for two hours at three concentrations of AZT (0.5, 1 and 2 μM), Nevirapine (0.5, 1 and 2 μM), foscarnet (25 and 50 μM) and Thiovir™ (25 and 50 μM) prior to infection at MOI of 0.1 of HIVIIIB or HIVLAI. […] Virus was passaged at increasing drug concentration and monitored for increase in IC50. […]
Thiovir™ and foscarnet resistant viruses were selected by in vitro passage of HIVLAI on H9 cells in the presence of escalating concentrations of drug. Resistant virus was evaluated for phenotypic changes by IC50 determination using the MAGI assay. […]

SMILES | Susceptibility Index (IC50 Resistant Virus/IC50 Purent Virus) [1] | Susceptibility Index (IC50 Resistant Virus/IC50 Purent Virus) [2] | Susceptibility Index (IC50 Resistant Virus/IC50 Purent Virus) [3] | Susceptibility Index (IC50 Resistant Virus/IC50 Purent Virus) [4] | drug interaction in words, combined with tenofovir [5] | susceptibility of the resistant virus panel [6] | susceptibility of the majority of the panel viruses [6] | resistance of selected virus ([1]; second Thiovir™ selected resistant virus) | resistance of selected virus ([2]; first Thiovir™ selected resistant virus) | susceptibility of selected virus in words [7]
O=C(O)P(=O)(O)O [Foscarnet, phosphonoformic acid] | 85 | 4.8 | 4.1 | 103 | additive to antagonistic | sensitive | hypersensitive | – | – | –
Cc1cn([C@H]2C[C@H](N=[N+]=[N-])[C@@H](CO)O2)c(=O)[nH]c1=O [Zidovudine, Azidothymidine] | 0.35 | 0.22 | 0.87 | 0.58 | – | – | – | – | – | –
O=C(O)P(O)(O)=S [Thiovir™, thiophosphonoformic acid] | 113 | 4.8 | 6.3 | 100 | synergy | sensitive | hypersensitive | 85 fold | 4.8 fold | –
Cc1ccnc2c1NC(=O)c1cccnc1N2C1CC1 [Nevirapine] | – | 1.05 | 1.06 | – | – | – | – | – | – | sensitive
